Activity calls are given as the source filed them. The calls are words filed in the database; no cut-off is given here.
Columns and labels:
Mus musculus [1] = experiment: Antiinflammatory activity in albino mouse assessed as inhibition of carrageenan-induced paw edema at 250 mg/kg, po administered 1 hr before carrageenan challenge measured after 3 hrs; type: functional
Mus musculus [2] = experiment: Antiinflammatory activity in albino mouse assessed as inhibition of carrageenan-induced paw edema at 75 mg/kg, ip administered 1 hr before carrageenan challenge measured after 3 to 7 hrs; type: functional; conditions: route intraperitoneal
Mus musculus [3] = experiment: Antiinflammatory activity in albino mouse assessed as inhibition of carrageenan-induced paw edema at 125 mg/kg, po administered 1 hr before carrageenan challenge measured after 3 to 7 hrs; type: functional, organism-based; design: dose 125 mg/kg
Mus musculus [4] = experiment: Antiinflammatory activity in po dosed albino mouse assessed as inhibition of carrageenan-induced paw edema administered 1 hr before carrageenan challenge measured; type: functional, organism-based
Mus musculus [5] = experiment: Antiinflammatory activity in albino mouse assessed as inhibition of carrageenan-induced paw edema at 80 mg/kg, ip administered 1 hr before carrageenan challenge measured after 3 hrs; type: functional; conditions: route intraperitoneal
Mus musculus [6] = experiment: Antiinflammatory activity in albino mouse assessed as inhibition of carrageenan-induced paw edema at 100 mg/kg, po administered 1 hr before carrageenan challenge measured after 3 hrs; type: functional

Row | Compound | inhibition in vivo at 250 mg/kg (Mus musculus [1]) | inhibition in vivo at 75 mg/kg (Mus musculus [2]) | Activity (Mus musculus [3]) | Activity (Mus musculus [4]) | inhibition in vivo at 80 mg/kg (Mus musculus [5]) | inhibition in vivo at 100 mg/kg (Mus musculus [6])
1 | C=C[C@@]1(CO)CC[C@H]2[C@]3(C)CCCC(C)(C)[C@H]3CC[C@]2(C)O1 | 55.8% | 60.1% | Active | Dose-dependent effect | 63.5% | 
2 | CCCCC1C(=O)N(c2ccccc2)N(c2ccccc2)C1=O [PHENYLBUTAZONE] |  |  |  |  |  | 47.7%
